Source: publication PMC8641298 (ACS infectious diseases, 2020)

Tests used:
S. mansoni somules = test: In vitro phenotypic screen of S. mansoni somules; type: cell-based, Schistosoma mansoni
S. mansoni adults = test: In vitro phenotypic screen of S. mansoni adults; type: cell-based, Schistosoma mansoni; conditions: for Phenotypic descriptors, adults 5 h / Phenotypic descriptors, adults 24 h / Phenotypic descriptors, adults 48 h: assays performed at 10 μM (footnote d)
adult S. mansoni = test: WormAssay, average adult worm motility; type: cell-based, Schistosoma mansoni; conditions: 5 h; for WormAssay (average adult worm movement ± SD): DMSO control 104.1 ± 24.4; for EC50: Schistosoma mansoni, read-out: EC50 of paralysis measured by WormAssay
HeLa cytotoxicity = type: cell-based; conditions: human, HeLa cells
HEK293 cytotoxicity = type: cell-based; conditions: human
[1] = test system: acetylated α-tubulin in HEK293 cells; test: HEK293 MT-stabilization assay; type: cell-based; conditions: 4 h
[2] = assays performed at 10 μM (footnote d)
[3] = HEK293 cells (method text: HEK 293T)

Compound | Phenotypic descriptors, somules (1 μM) 24 h (S. mansoni somules) | Phenotypic descriptors, somules (1 μM) 48 h (S. mansoni somules) | Phenotypic descriptors, somules (10 μM) 24 h (S. mansoni somules) | Phenotypic descriptors, somules (10 μM) 48 h (S. mansoni somules) | Phenotypic descriptors, adults (5 μM) 5 h (S. mansoni adults) | Phenotypic descriptors, adults (5 μM) 24 h (S. mansoni adults) | Phenotypic descriptors, adults (5 μM) 48 h (S. mansoni adults) | WormAssay (average adult worm movement ± SD) (adult S. mansoni; 5 μM) | Phenotypic descriptors, adults 5 h (S. mansoni adults) | Phenotypic descriptors, adults 24 h (S. mansoni adults) | Phenotypic descriptors, adults 48 h (S. mansoni adults) | WormAssay (average adult worm movement ± SD) (adult S. mansoni; [2]) | CC50 at 48 h (HeLa cytotoxicity) [nM] | CC50 at 48 h (HEK293 cytotoxicity; [3]) [nM] | Fold-change in acetylated α-tubulin ([1]; 1 μM) | CC50 at 48 h (HEK293 cytotoxicity) [nM] | EC50 (adult S. mansoni) [nM] | Fold-change in acetylated α-tubulin ([1]; 10 μM)
Fc1cc(F)c(-c2cnc(-c3cccs3)nc2Cl)c(F)c1 [Compound 32, 4-chloro-2-(thiophen-2-yl)-5-(2,4,6-trifluorophenyl)pyrimidine] | N | N | R, S | N | N | N | N | 78.0 ± 20.1 | – | – | – | – | – | – | – | – | – | –
C[C@H](Nc1nc(-c2nccs2)nc(Cl)c1-c1c(F)cc(F)cc1F)C(F)(F)F [Compound 23, (S)-6-chloro-2-(thiazol-2-yl)-5-(2,4,6-trifluorophenyl)-N-(1,1,1-trifluoropropan-2-yl)pyrimidin-4-amine] | Deg, unc | Deg, unc | Deg, unc | Deg, unc | – | – | – | – | Unc, dark^d | Unc, dark^d | Unc, dark^d | 62.1 ± 26.4^d | 6 ± 1 | 8 ± 2 | – | – | – | –
CC1(CNc2nc(-c3cccs3)nc(Cl)c2-c2c(F)cc(F)cc2F)N=N1 [Compound 30, 6-chloro-N-((3-methyl-3H-diazirin-3-yl)methyl)-2-(thiophen-2-yl)-5-(2,4,6-trifluorophenyl)-pyrimidin-4-amine] | S | S, R | R, I | R, I | S, on sides | S, on sides | S, on sides | 12.9 ± 18.1 | – | – | – | – | 3890 ± 1860 | 1270 ± 35 | – | – | – | –
C[C@H](Nc1nc(-c2ccc3ccccc3n2)nc(Cl)c1-c1c(F)cc(F)cc1F)C(F)(F)F [Compound 21, (S)-6-chloro-2-(quinolin-2-yl)-5-(2,4,6-trifluorophenyl)-N-(1,1,1-trifluoropropan-2-yl)pyrimidin-4-amine] | N | N | R, deg | R, deg | N | N | S, on sides | 75.3 ± 18.9 | – | – | – | – | – | – | 1.95 ± 0.2 (1 μM) fold | – | – | –
CNCCCOc1cc(F)c(-c2c(Cl)nc3ncnn3c2N[C@@H](C)C(F)(F)F)c(F)c1 [Compound 12, cevipabulin, reference compound] | – | – | – | – | – | – | – | – | – | – | – | – | – | – | – | 28 | – | –
O=C(C1CCCCC1)N1CC(=O)N2CCc3ccccc3C2C1 (stereo not drawn) [PZQ, praziquantel, reference compound] | – | – | – | – | – | – | – | 1.8 ± 5.1 | – | – | – | – | – | – | – | – | – | –
C[C@H](Nc1cc(Cl)nc(-c2cccs2)n1)C(F)(F)F [Compound 31, (S)-6-chloro-2-(thiophen-2-yl)-N-(1,1,1-trifluoropropan-2-yl)pyrimidin-4-amine] | R, unc | N | R, unc | N | N | N | N | 89.0 ± 18.6 | – | – | – | – | – | – | – | – | – | –
CC1(CNc2nc(-c3cnccn3)nc(Cl)c2-c2c(F)cc(F)cc2F)N=N1 [Compound 22, 6-chloro-N-((3-methyl-3H-diazirin-3-yl)methyl)-2-(pyrazin-2-yl)-5-(2,4,6-trifluorophenyl)-pyrimidin-4-amine] | R, deg | R, deg | R, deg | R, deg | N | N | Unc | 131.4 ± 27.4 | – | – | – | – | 40 ± 12 | 50 ± 10 | 2.68 ± 0.04 (1 μM) fold | – | – | –
CC(C)[C@@H](C)Nc1nc(-c2cccs2)nc(Cl)c1-c1c(F)cc(F)cc1F [Compound 28, (R)-6-chloro-N-(3-methylbutan-2-yl)-2-(thiophen-2-yl)-5-(2,4,6-trifluorophenyl)pyrimidin-4-amine] | R, I | R, I | R, I | R, I | I, on sides | I, on sides | I, on sides | 2.9 ± 8.8 | – | – | – | – | 17400 ± 2000 | 26800 | – | – | ~1000 | –
C[C@H](Nc1nc(-c2ccco2)nc(Cl)c1-c1c(F)cc(F)cc1F)C(F)(F)F [Compound 24, (S)-6-chloro-2-(furan-2-yl)-5-(2,4,6-trifluorophenyl)-N-(1,1,1-trifluoropropan-2-yl)pyrimidin-4-amine] | N | N | N | Deg, unc | – | – | – | – | S^d | Unc, on sides^d | S, dark, on sides^d | 56.0 ± 21.5^d | – | – | – | – | – | 2.7 ± 0.2 (10 μM) fold
CC(C)[C@H](C)Nc1nc(-c2cccs2)nc(Cl)c1-c1c(F)cc(F)cc1F [Compound 29, (S)-6-chloro-N-(3-methylbutan-2-yl)-2-(thiophen-2-yl)-5-(2,4,6-trifluorophenyl)pyrimidin-4-amine] | R, S | R, S | R, I | R, I | I, on sides | I, on sides | I, on sides | 5.0 ± 11.5 | – | – | – | – | 8780 ± 1390 | 29100 | – | – | ~1000 | –
C[C@H](Nc1nc(-c2cccs2)nc(Cl)c1-c1c(F)cc(F)cc1F)C(F)(F)F [Compound 25, (S)-6-chloro-2-(thiophen-2-yl)-5-(2,4,6-trifluorophenyl)-N-(1,1,1-trifluoropropan-2-yl)pyrimidin-4-amine] | R, S | R, S | rounding and immobility and R, I | R, I, | I, on sides | I, on sides | I, on sides | 5.5 ± 9.8 | – | – | – | – | 1660 ± 612 | 1270 ± 106 | – | – | ~1000 | 3.0 ± 0.6 (10 μM) fold
C[C@@H](Nc1nc(-c2cccs2)nc(Cl)c1-c1c(F)cc(F)cc1F)C(F)(F)F [Compound 27, (R)-6-chloro-2-(thiophen-2-yl)-5-(2,4,6-trifluorophenyl)-N-(1,1,1-trifluoropropan-2-yl)pyrimidin-4-amine] | R, S | R | R, I | R, I | I, on sides | I, on sides | I, on sides | 6.3 ± 9.3 | – | – | – | – | 27700 ± 10400 | 29400 | – | – | – | –
